The source of these data is patent US9980943B2, “Methods of treating muscular dystrophy” (BOARD OF REGENTS OF THE NEVADA SYSTEM OF HIGHER EDUCATION, …, priority 2013, dated 2018).

Each structure is given as a SMILES string.

What all share (assay type): cell-based, mouse
The subject of experiment [1] is α7 integrin (LacZ reporter in α7+/LacZ myotubes). The experiment is described as follows: Myotube α7 integrin FDG assay (Burkin assay in myotubes, 96-well). The settings on record: myotubes.
Experiment [2] relates to β-galactosidase in CMV-LacZ C2C12 myotubes. Description: CMV-LacZ secondary screen in C2C12 myotubes (β-Gal stabilizing assay). The following applies: C2C12 CMV-LacZ myotubes, fold relative to DMSO. In short, it runs like this: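 A secondary screen identifies compounds that stabilize β-gal independently of the native promoter, using CMV-LacZ C2C12 cells. Curves span 0.5–40 μM at six levels, in duplicate.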

In experiment [3] the test system is α7 integrin (LacZ reporter in α7βgal+/− myoblasts). The experiment is described as follows: Myoblast α7+/LacZ integrin FDG assay (Burkin assay in myoblasts, 96-well). The following applies: α7+/LacZ myoblasts, 96-well.
Experiment [4] relates to β-galactosidase in CMV-LacZ C2C12 myoblasts. Description: CMV-LacZ secondary screen in C2C12 myoblasts (β-Gal stabilizing assay). The following applies: CMV-LacZ C2C12 myoblasts. In short, it runs like this:
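β-gal stabilization was measured in C2C12 myoblasts or myotubes stably transfected with a CMV-driven LacZ construct, using the FDG β-gal assay. Compounds were tested in dose-response at 0.5, 1, 5, 10, 20 and 40 μM, with two replicates per point.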

With `O=c1[nH]c2ccccc2nc1-c1c[nH]c2ccccc12` [MLS001181936-01], the “Burkin Assay in Myotubes, α7 integrin LacZ reporter signal relative to DMSO” value in experiment [1] (0.5 uM) is reported as 0.9197; in experiment [1] (1 uM), 0.7633; in experiment [1] (5 uM) it was 0.9856; in experiment [1] (10 uM), 1.024; in experiment [1] (20 uM) it was 0.5868; in experiment [1] (40 uM), 0.7387. In addition, the “CMV-LACZ in Myotubes, signal relative to DMSO” value was found to be 1.0705 in experiment [2] (0.5 uM); 0.9886 in experiment [2] (1 uM); 0.9246 in experiment [2] (5 uM); 1.0274 in experiment [2] (10 uM); 0.9020 in experiment [2] (20 uM); 1.0280 in experiment [2] (40 uM). For the same molecule, the “Burkin Assay in Myoblasts, signal relative to DMSO” value in experiment [3] (0.5 uM) was 0.8443; in experiment [3] (1 uM), 0.7562; in experiment [3] (5 uM), 0.8573; in experiment [3] (10 uM), 0.8219; in experiment [3] (20 uM), 0.51; in experiment [3] (40 uM), 0.3285. For the same molecule, the “CMV-LACZ in Myoblasts (β-galactosidase activity relative to DMSO)” value in experiment [4] (0.5 uM) was 0.8487; in experiment [4] (1 uM), 0.9273; in experiment [4] (5 uM), 0.7292; in experiment [4] (10 uM), 0.8296; in experiment [4] (20 uM), 0.7863; in experiment [4] (40 uM), 0.6130.
For `Cc1ccsc1CN(C)CC(=O)Nc1ccc([N+](=O)[O-])cc1Cl` [MLS001172822-01], the “Burkin Assay in Myotubes, α7 integrin LacZ reporter signal relative to DMSO” value was 0.9496 in experiment [1] (0.5 uM); 0.9315 in experiment [1] (1 uM); 0.8513 in experiment [1] (5 uM); 0.861 in experiment [1] (10 uM); 0.8466 in experiment [1] (20 uM); 0.7858 in experiment [1] (40 uM). Further, the “CMV-LACZ in Myotubes, signal relative to DMSO” value is reported as 1.2590 in experiment [2] (0.5 uM); 1.0514 in experiment [2] (1 uM); 1.2505 in experiment [2] (5 uM); 1.1819 in experiment [2] (10 uM); 1.1768 in experiment [2] (20 uM); 0.6358 in experiment [2] (40 uM). In addition, the “Burkin Assay in Myoblasts, signal relative to DMSO” value was determined as 1.233 in experiment [3] (0.5 uM); 1.351 in experiment [3] (1 uM); 0.9662 in experiment [3] (5 uM); 0.9014 in experiment [3] (10 uM); 0.987 in experiment [3] (20 uM); 0.9597 in experiment [3] (40 uM). Further, the “CMV-LACZ in Myoblasts (β-galactosidase activity relative to DMSO)” value in experiment [4] (0.5 uM) came out at 0.9304; in experiment [4] (1 uM), 1.0617; in experiment [4] (5 uM) it was 1.1375; in experiment [4] (10 uM) it was 1.0904; in experiment [4] (20 uM) it was 0.9285; in experiment [4] (40 uM), 1.2767.
`O=C(c1ccccc1)N1CCN(S(=O)(=O)c2cccs2)CC1` [MLS001035690-01]: the “Burkin Assay in Myotubes, α7 integrin LacZ reporter signal relative to DMSO” value in experiment [1] (0.5 uM) stood at 1.111; in experiment [1] (1 uM) it was 1.072; in experiment [1] (5 uM) it was 1.073; in experiment [1] (10 uM) it was 0.9358; in experiment [1] (20 uM), 0.972; in experiment [1] (40 uM), 0.9238. Moreover, the “CMV-LACZ in Myotubes, signal relative to DMSO” value in experiment [2] (0.5 uM) amounted to 1.0474; in experiment [2] (1 uM), 0.8644; in experiment [2] (5 uM) it was 1.1552; in experiment [2] (10 uM) it was 1.1317; in experiment [2] (20 uM) it was 1.1976; in experiment [2] (40 uM) it was 1.0976. Also, the “Burkin Assay in Myoblasts, signal relative to DMSO” value turned out to be 1.051 in experiment [3] (0.5 uM); 1.151 in experiment [3] (1 uM); 1.186 in experiment [3] (5 uM); 0.9872 in experiment [3] (10 uM); 1.055 in experiment [3] (20 uM); 1.091 in experiment [3] (40 uM). Moreover, the “CMV-LACZ in Myoblasts (β-galactosidase activity relative to DMSO)” value in experiment [4] (0.5 uM) came to 0.9819; in experiment [4] (1 uM) it was 1.0406; in experiment [4] (5 uM), 0.9910; in experiment [4] (10 uM) it was 1.2020; in experiment [4] (20 uM), 1.3585; in experiment [4] (40 uM) it was 0.9178.
For the molecule `CC(C)CN(C(=O)c1cccc(Cl)c1)c1c(N)n(Cc2ccccc2)c(=O)[nH]c1=O` [MLS002163670-01], the “Burkin Assay in Myotubes, α7 integrin LacZ reporter signal relative to DMSO” value came to 1.223 in experiment [1] (0.5 uM); 1.294 in experiment [1] (1 uM); 0.9778 in experiment [1] (5 uM); 1.072 in experiment [1] (10 uM); 0.8526 in experiment [1] (20 uM); 0.735 in experiment [1] (40 uM). For the same molecule, the “CMV-LACZ in Myotubes, signal relative to DMSO” value in experiment [2] (0.5 uM) is 0.9237; in experiment [2] (1 uM), 1.2044; in experiment [2] (5 uM), 0.9788; in experiment [2] (10 uM) it was 0.8898; in experiment [2] (20 uM), 1.1659; in experiment [2] (40 uM), 1.1235. The “Burkin Assay in Myoblasts, signal relative to DMSO” value is listed as 1.117 in experiment [3] (0.5 uM); 1.234 in experiment [3] (1 uM); 1.012 in experiment [3] (5 uM); 0.9468 in experiment [3] (10 uM); 0.8972 in experiment [3] (20 uM); 0.7779 in experiment [3] (40 uM). Besides, the “CMV-LACZ in Myoblasts (β-galactosidase activity relative to DMSO)” value in experiment [4] (0.5 uM) was 1.1806; in experiment [4] (1 uM) it was 0.8738; in experiment [4] (5 uM), 0.8671; in experiment [4] (10 uM), 0.9725; in experiment [4] (20 uM), 0.8611; in experiment [4] (40 uM) it was 1.4715.
